Laboratory results taken from PMC4955970, “Stable, synthetic analogs of diadenosine tetraphosphate inhibit rat and human P2X3 receptors and inflammatory pain” (Molecular Pain, 2016).
Read-outs that look alike come from different tables or passages of the source.

Tests used:
[1] = target: T1, native P2X3Rs in DRG neurons (Rattus norvegicus, UniProt P49654); experiment: Whole-cell recording of α,β-meATP currents in cultured dorsal root ganglion (DRG) neurons; assay type: cell-based; settings: DRG neuron, read-out: inhibition of sustained residual component in DRG neurons
T1 construct: effects of AppNHppA on native P2X3Rs in TG, DRG, and NG neurons were investigated; endogenous in cells; host or cells: cultured rat trigeminal ganglion (TG) or dorsal root ganglion (DRG) neurons
T1 sequence (P49654 1-397): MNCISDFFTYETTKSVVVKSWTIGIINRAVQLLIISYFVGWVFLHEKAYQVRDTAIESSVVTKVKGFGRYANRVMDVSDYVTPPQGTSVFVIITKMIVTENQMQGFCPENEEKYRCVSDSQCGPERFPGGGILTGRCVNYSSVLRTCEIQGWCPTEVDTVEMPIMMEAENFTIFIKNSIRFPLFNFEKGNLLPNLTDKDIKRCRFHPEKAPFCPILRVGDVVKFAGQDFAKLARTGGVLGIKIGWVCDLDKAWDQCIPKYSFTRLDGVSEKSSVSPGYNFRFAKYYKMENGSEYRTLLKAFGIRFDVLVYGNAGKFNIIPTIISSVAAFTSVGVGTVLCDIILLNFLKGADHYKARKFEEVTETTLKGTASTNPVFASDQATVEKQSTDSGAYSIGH
T1 sequence (P49653 1-472 partner): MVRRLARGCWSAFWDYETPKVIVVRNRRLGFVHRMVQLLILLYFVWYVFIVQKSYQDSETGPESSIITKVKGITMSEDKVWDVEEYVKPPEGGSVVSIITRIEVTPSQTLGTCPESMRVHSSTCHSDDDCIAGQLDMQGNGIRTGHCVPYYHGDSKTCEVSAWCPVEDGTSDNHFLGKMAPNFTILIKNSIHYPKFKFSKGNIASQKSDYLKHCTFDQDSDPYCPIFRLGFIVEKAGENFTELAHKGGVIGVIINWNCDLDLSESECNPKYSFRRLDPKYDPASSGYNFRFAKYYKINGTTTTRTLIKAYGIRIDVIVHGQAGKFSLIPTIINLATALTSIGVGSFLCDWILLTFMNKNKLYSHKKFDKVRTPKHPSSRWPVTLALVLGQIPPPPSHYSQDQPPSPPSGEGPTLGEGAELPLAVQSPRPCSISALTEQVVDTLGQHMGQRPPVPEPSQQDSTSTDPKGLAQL
Procedure: (§1) Rat trigeminal, nodose, or dorsal root ganglion (TG, NG, and DRG, respectivley) neurons in culture were prepared as described previously.[46],[47] Neurons were plated on poly-L-lysine (0.2 mg/ml)-coated Petri dishes and cultured for one to two days under an atmosphere containing 5% CO2. Cells were used within two days of plating when they lacked processes. HEK293T cells were prepared as reported previously[32],[48] and transfected with rat or human full-length P2X3 cDNA subcloned into pIRES2-EGFP (Clontech, Mountain View, CA, USA).
(§2) TG, NG, DRG, or HEK cells were recorded in the whole-cell configuration while being continuously superfused (at 2 ml/min) with control solution containing (in mM): 152 NaCl, 5 KCl, 1 MgCl2, 2 CaCl2, 10 glucose, and 10 HEPES; pH was adjusted to 7.4 with NaOH and osmolarity was adjusted to 320 mOsM with glucose. […] Responses to selective P2X3R agonist α,β-methylene-ATP (α,β-meATP; resistant to ectoATPase hydrolysis, Sigma-Aldrich) were measured using an EPC-9 amplifier operated by HEKA Patch Master software (HEKA Electronik, Germany). Cells were voltage-clamped at −70 mV. In most cells, series resistance was compensated by 80%. To determine EC50 values, dose-response curves were constructed for α,β-meATP by administering different agonist doses same cells and fitting data to a logistic equation (Origin 8.0, Microcal, Northampton, MA). […]

[2] = target: T2, native P2X3Rs in DRG neurons (Rattus norvegicus, UniProt P49654); experiment: as above; assay type: cell-based; settings: DRG neuron, read-out: inhibition of peak currents in DRG neurons
T2 construct: effects of AppNHppA on native P2X3Rs in TG, DRG, and NG neurons were investigated; endogenous in cells; host or cells: cultured rat trigeminal ganglion (TG) or dorsal root ganglion (DRG) neurons
T2 sequence (P49654 1-397): T1 sequence (P49654 1-397)
Procedure: as §1, §2

[3] = tested on: native P2X3Rs / P2X2/3Rs in NG neurons; experiment: Whole-cell recording of α,β-meATP currents in cultured nodose ganglion (NG) neurons; assay type: cell-based, rat; settings: 1 µM, 6 min; 10 µM α,β-meATP
Procedure: as §1, §2

[4] = target: T3, native P2X3Rs / P2X2/3Rs in NG neurons (Rattus norvegicus, UniProt P49653+P49654); experiment: as above; assay type: cell-based; settings: read-out: inhibition of sustained residual component in NG neurons
T3 construct: effects of AppNHppA on native P2X3Rs in TG, DRG, and NG neurons were investigated; while NG neurons express heteromeric P2X2/3Rs subunits; endogenous in cells; host or cells: cultured rat nodose ganglion (NG) neurons
T3 sequence (P49654 1-397): T1 sequence (P49654 1-397)
T3 sequence (P49653 1-472): T1 sequence (P49653 1-472 partner)
Procedure: as §1, §2

inhibition at 1 µM [1]: 18 ± 6%
inhibition at 1 µM [2]: 79.2 ± 5.6%
inhibition at 1 µM [4]: 2 ± 4%
Structure (SMILES): Nc1ncnc2c1ncn2[C@@H]1O[C@H](COP(=O)(O)OP(=O)(O)NP(=O)(O)OP(=O)(O)OC[C@H]2O[C@@H](n3cnc4c(N)ncnc43)[C@H](O)[C@@H]2O)[C@@H](O)[C@H]1O [AppNHppA, diadenosine 5′,5′′′-P^1,P^4-(β,γ-imido)tetraphosphate]
inhibition of peak currents in NG neurons [3]: 16.8 ± 11.8%
